Measured values published in patent US20090239834A1, “MCC-257 MODULATION OF NEUROGENESIS” (BrainCells, Inc., priority 2008, published 2009).
“Also recorded” adds a separate entry of the source.

Experiments:
[1] = tested on: human neural stem cells (hNSCs); assay: Neuronal differentiation of human neural stem cells (TUJ-1 staining); type: cell-based
Text: FIG. 1 is a dose-response curve showing the effect of MCC-257 on neuronal differentiation of human neural stem cells. Data is presented as the percentage of the neuronal positive control, with basal media values subtracted.
Human neural stem cells (hNSCs) were isolated and grown in monolayer culture, plated, treated with varying concentrations of MCC-257, and stained with TUJ-1 antibody for the detection of neuronal differentiation as described in U.S. Patent Publication 2007/0015138 (incorporated by reference). Mitogen-free test media with a positive control for neuronal differentiation was used along with basal media without growth factors as a negative control.
The data is presented as a percent of neuronal positive control.

[2] = tested on: neural progenitor cells within the dentate gyrus of the hippocampus; assay: In vivo neurogenesis, BrdU positive cell counts in the dentate gyrus; design: species or system rat; settings: 0.3 mg/kg orally q.d., chronic (26 or 28 days as printed); vs vehicle; FIG. 3
Procedure: The white bar represents vehicle (DI water, n=11) and the grey bar represents MCC-257 dosed at 0.3 mg/kg (n=10). Both vehicle and MCC-257 were dosed orally once daily (q.d.) for 26 days prior to analysis. […] Data are presented as the number of BrdU cells per cubic mm of dentate gyrus. […] Values are the mean±SEM.
For the in vivo neurogenesis assays, male F344 rats were dosed orally once daily (q.d.) for 28-days with vehicle (DI water; n=11) or 0.3 mg/kg MCC-257 ([…]). BrdU was administered once daily between days 9 and 14 (100 mg/kg/day, i.p.).

male F344 rats [3] = assay: Novelty-suppressed feeding test (NSF), chronic dosing; type: in vivo, rat; settings: vs vehicle, p<0.05 one-tailed Student's t-test, FIG. 2
Procedure: The white bar represents the vehicle control (DI water; n=10), the black bar represents fluoxetine dosed at 12.5 mg/kg (n=11) and the grey bar represents MCC-257 dosed at 0.3 mg/kg (n=11). Vehicle and compounds were administered orally once daily (q.d.) for 20 days prior to behavioral testing. Behavioral testing was carried out as described in Example 2. […] Values are the mean±SEM.
The NSF is a conflict test in which food-deprived animals are presented with a food pellet placed in the center of a brightly-lit open field. This paradigm elicits competing motivations: the drive to eat the food pellet, and the fear of venturing into the center of the arena. The dependent variable in this test is the amount of time it takes for an animal to begin eating the pellet, and this latency has been used as an index of anxiety-like behavior and antidepressant activity because it is decreased by classical anxiolytic drugs such as benzodiazepines (Bodnoff et al. “The effects of chronic antidepressant treatment in an animal model of anxiety.” 1988 Psychopharmacology (Berl) 95(3):298-302; Bodnoff et al. “A comparison of the effects of diazepam versus several typical and atypical anti-depressant drugs in an animal model of anxiety.” 1989 Psychopharmacology (Berl) 97(2):277-9; Shephard and Broadhurst, “Hyponeophagia and arousal in rats: effects of diazepam, 5-methoxy-N,N-dimethyltryptamine, d-amphetamine and food deprivation.” 1982 Psychopharmacology (Berl) 78(4):[…]) as well as antidepressants.
NSF is performed as described previously by Santarelli, et al. (2003) with some modifications. Briefly, male F344 rats were dosed orally once daily (q.d.) for 20-days with vehicle (DI water; n=10), 12.5 mg/kg fluoxetine (n=11) or 0.3 mg/kg MCC-257 (n=11). Animals were food deprived for 24 hours prior to testing. On day 22, 60 minutes after drug administration, NSF was performed in an open field chamber. A single pellet of rodent chow was placed in the center of the open field. […] Saved videos were subsequently scored by blinded observers and the latency to eat the pellet was recorded.

male F344 rats [4] = assay: Novel Object Recognition (NOR) cognition assay; type: in vivo, rat; settings: 48-hour delay; increasing oral doses q.d., chronic; vs vehicle; FIG. 4
Procedure: Behavioral testing was carried out as described in Example 2. Data is presented as the mean percentage of visits to a novel object. The white bar represents vehicle (DI water: n=11) and grey bars represent increasing doses of MCC-257 (0.1 mg/kg, n=10; 0.3 mg/kg, n=10; 3.0 mg/kg, n=10). All animals were dosed orally once daily (q.d.) for 29 days prior to testing. […] Values are the mean±SEM.
NOR was performed as described previously by Broadbent et al., (“Spatial memory, recognition memory, and the hippocampus.” 2004 PNAS 101(40):14511-14520) with some modifications. The apparatus consisted of an open field (45×45×50 cm high) made of polycarbonate. Triplicate copies were used of the objects to be discriminated. Care was taken to ensure that the pair of objects tested were made from the same material so that they could not be distinguished readily by olfactory cues although they had very different appearances. Each test session consisted of two phases. In the initial familiarization phase, two identical objects (A1 and A2) were placed in the far corners of the box arena. A rat was then placed in the middle of the arena and allowed 15 minutes to explore both objects. Exploration of an object was defined as directing the nose to the object at a distance of less than 2 cm and/or touching it with the nose. After a delay of 48-hours the rat was re-introduced to the arena (“test phase”). […]

CO[C@]1(C(=O)N[C@@H]2CC[C@@]3(C)[C@@H](CC[C@@H]4[C@@H]3CC[C@]3(C)[C@@H]([C@H](C)CCCC(C)C)CC[C@@H]43)C2)C[C@H](O)[C@@H](NC(C)=O)[C@H]([C@H](O)[C@H](O)CO)O1 [MCC-257, 5-acetamido-N-(5alpha-cholestan-3alpha-yl)-3,5-dideoxy-2-O-methyl-D-glycero-alpha-D-galacto-non-2-ulopyranosonamide] was tested, and the EC50 ([1]; Homo sapiens, Neural stem cell, read-out: EC50 of neuronal differentiation) was 90 nM, the “effect on neuronal differentiation” value ([1]; concentration response curve, percent of neuronal positive control, FIG. 1) was “promoted neuronal differentiation in a concentration dependent manner” and the “BrdU positive cells per cubic mm in granule cell layer of dentate gyrus (neurogenesis)” value [2] was “significant increase; also recorded: significantly increased neurogenesis”. The “latency to eat a food pellet in a novel environment” value (“latency to eat a food pellet” for short) (male F344 rats [3]; 0.3 mg/kg orally q.d. for 20 days) was “significantly reduced latency to eat” and the “preference for the novel object (percent visits)” value (male F344 rats [4]) was “dose dependent increase in preference for the novel object; also recorded: dose-related increase in preference for the novel object”.
In the case of CNCCC(Oc1ccc(C(F)(F)F)cc1)c1ccccc1 (stereo not shown) [fluoxetine, reference compound], the “latency to eat a food pellet” value (male F344 rats [3]; 12.5 mg/kg orally q.d. for 20 days) is reported as “significantly reduced” and the “latency to eat a food pellet” value (male F344 rats [3]; 12.5 mg/kg orally q.d. for 20 days, listed as Fluoxetine) is reported as “significantly reduced latency to eat”.
